Experimental data published in US20140336463A1, “Rhinotopic therapy for the treatment of chronic rhinosinusitis biofilm disruption, treatment of mucosal granulation and sinus polyps” (priority 2009, published 2014).

Columns and labels:
[1] = prolonged intravenous use; cited from earlier work
[2] = system: patients with refractory CRS; experiment: Part I prospective study, Rhinotopic therapy spray: Lund-Kennedy scores, clinical course, side effects; format: in vivo
Text: The first part is a prospective study that includes 20 patients with refractory CRS, treated in with Rhinotopic therapy spray at a tertiary rhinology fellowship-training program. The patients were placed on the rhinotopic protocol only after they failed extended standard medical therapy. The latter is defined, for the purpose of this study, as three or more repeated courses of different oral antibiotics along with nasal corticosteroids sprays and nasal saline rinses (each lasting at least 3 weeks), within a 6 month-period, along with oral corticosteroids when indicated (in case of significant polyposis or Samter's triad). Patients who failed extended medical therapy were given the option of revision sinus surgery or rhinotopic therapy; all 20 patients chose rhinotopic therapy and were consented accordingly. […]
CT scans were reviewed prior to treatment and evaluated following the Lund-Mackay radiologic scoring system (9). Clinical response to treatment was monitored using the Lund-Kennedy (LK) symptoms score and the LK endoscopic appearance score (9). […] The LK symptoms score evaluated nasal congestion and obstruction, headache, facial pain, alteration I the sense of smell, nasal discharge, and sneezing. The LK endoscopic appearance score evaluated the presence or absence of nasal polyps, edema, discharge, scarring, and crusting on each side of the nasal cavity. […]

| SMILES | side effects [1] | patients who developed an allergic reaction (skin rash over the upper lip) ([2]; nebulized, stopped the treatment and dropped out) | clinical response ([2]; intravenous, one patient, before the rhinotopic protocol) |
| --- | --- | --- | --- |
| CN[C@H](CC(C)C)C(=O)N[C@H]1C(=O)N[C@@H](CC(N)=O)C(=O)N[C@H]2C(=O)N[C@H]3C(=O)N[C@H](C(=O)N[C@H](C(=O)O)c4cc(O)cc(O)c4-c4cc3ccc4O)[C@H](O)c3ccc(c(Cl)c3)Oc3cc2cc(c3O[C@@H]2O[C@H](CO)[C@@H](O)[C@H](O)[C@H]2O[C@H]2C[C@](C)(N)[C@H](O)[C@H](C)O2)Oc2ccc(cc2Cl)[C@H]1O [Vancomycin] | toxicity to the kidneys and the inner ear | One |  |
| CC(C)(O/N=C(\C(=O)N[C@@H]1C(=O)N2C(C(=O)[O-])=C(C[n+]3ccccc3)CS[C@H]12)c1csc(N)n1)C(=O)O [ceftazidine] |  |  | improved transiently but their symptoms recurred |
